According to article PMC9828538, “Antigiardial Activity of Novel Guanidine Compounds” (Chemmedchem, 2022):
Entries after “also recorded” stand apart in the source; their conditions may differ. Where two headings read alike, the source gives them in different places.

What was measured:
[1] = system: Giardia duodenalis trophozoites (BAH2c2 strain); experiment: Resazurin reduction assay on Giardia trophozoites in vitro; assay type: cell-based; conditions: for Selectivity ratio: higher ratios = more selective
Text: Biology Materials and Methods:
Metronidazole was sourced from sigma.
Chemicals used for the culture of Giardia in vitro were sourced as follows: glucose and L-cysteine (ACROS organics, Thermo Fisher Scientific, Scoresby, Vic), Ammonium Iron (III) citrate, ascorbic Acid (Sigma -aldrich, Castle Hill, NSW), potassium dihydrogen orthophosphate (UNIVAR, Ingleburn, NSW), bovine bi le (Fluka analytical (BD)), di-potassium hydrogen orthophosphate (Fronine laboratory supplies, Riverstone, NSW).
G. duodenalis (BAH2c2 strain) was cultivated according to the method of Clark and Diamond in Keister’s modified TYI-S-33 medium, supplemented with heat inactivated foetal bovine serum (Hyclone™, Thermo Scientific, Scoresby, Vic) at 37°C in plastic 9 mL screw-capped test tubes (nunc). Subcultures were performed once a confluent monolayer was observed, approximately 2 – 3 times per week (Clark and Diamond, 2002).
(§1) CaCo-2 cells, a human cell line derived from a primary colonic tumour, were sourced from Cellbank Australia and were maintained in MEM supplemented with 2 mM glutamine, 1% non-essential amino acids and 10% FCS (Thermo Scientific). Cells were passaged when confluent, approximately 1-2 times per week. Vero cells were also obtained from Cellbank Australia and maintained as above.
In vitro drug efficacy assays
Resazurin Reduction Assay […]
tested to identify the IC50 and minimum lethal concentration (MLC). For all assays the media of confluent cultures was replaced with fresh media and the cultures were placed on ice for 40 minutes to detach trophozoites.
Trophozoites were enumerated using a haemocytometer and 50 000 trophozoites were added to each test well of a 96 well plate. Either single concentrations (final concentration 25 μM) for the screening assay or tripling dilutions […]
wells. The assays were repeated in triplicate with metronidazole and a DMSO (vehicle only) used as controls. Plates were incubated under anaerobic conditions (anaerogen sachet, Thermofisher scientific) for 5 or 24 hours at 37°C following which the viability of treated cells was determined using the resazurin reduction assay (Benere et al., 2007). The media was removed and replaced with an equal volume of warm PBS. Resazurin (Sigma) was then added at 10% of the total volume of the wells. Plates were further incubated for colour development and absorbance read at 570 nm and 630 nm. Resazurin reduction was calculated according to the following formula: […]
(§2) CaCo-2 or Vero cells, maintained as outlined above, were collected via trypsinisation and enumerated using trypan blue and a haemocytometer. Select analogues were prepared in DMSO so that the final concentration in the assay was 25 μM. 1 X 10^5 cells/ml were added to each assay with the appropriate drug dilution. Assays were completed in 96 well plates and incubated for 24 hours at 37°C, 5% CO2 in a humidified incubator. After incubation cells were […]
(§3) washed with warm PBS before the addition of 10% resazurin in PBS. Assays were incubated to allow colour development and absorbance read at 630 and 570nm. Activity of the analogues against mammalian cells was calculated according to the formula stated above.

[2] = In vivo toxicity in mice; conditions: per os, 100 mg/kg per day for 3 days, 100 mg/kg/day
[3] = system: Giardia duodenalis; experiment: Washout / growth recovery of Giardia after 5 h exposure; assay type: cell-based; conditions: 5 h treatment, 48 h post removal
[4] = system: CaCo-2 cells; conditions: human, 24 h, 25 μM
Experimental: Biology Materials and Methods: […]
as §1
In vitro drug efficacy assays […]
2007). The media was removed and replaced with an equal volume of warm PBS. Resazurin (Sigma) was then added at 10% of the total volume of the wells. Plates were further incubated for colour development and absorbance read at 570 nm and 630 nm. Resazurin reduction was calculated according to the following formula: […]
as §2, §3

IC50 ([1]; Giardia duodenalis, 24 h, read-out: Antigiardial activity IC50 (24 h)) [nM] | MIC ([1]; Giardia duodenalis, 24 h, minimum inhibitory concentration, read-out: Antigiardial activity MIC (24 h)) [µM] | Structure (SMILES) | IC50 ([1]; Giardia duodenalis, 5 h, read-out: Antigiardial activity IC50 (5 h)) [nM] | time to marked impact on Giardia trophozoites ([1]; data not shown) [h] | Selectivity ratio ([1]; toxicity tested at 25 μM vs 5 h IC50, Table 4) | Tolerability in mice (adverse effects) [2] | Giardia regrowth after compound removal [3] | Selectivity ratio ([1]; toxicity tested at 25 μM vs 24 h IC50, Tables 1-3) | Toxicity (% growth control) [4] [%]
– | – | COc1cc(Br)c(C=NNC(=N)NN=Cc2cc(OC)c(OC)cc2Br)cc1OC.Cl [Compound 41, 2,2′‐bis[(2‐bromo‐4,5‐dimethoxyphenyl)methylene]carbonimidic dihydrazide hydrochloride] | 200 | 1 to 2 | >125 | well tolerated; also recorded: no adverse effects | no Giardia regrowth; also recorded: did not result in Giardia regrowth | – | –
900 | 2.8 | Cl.N=C(N/N=C/c1ccc(Cl)cc1)N/N=C/c1ccc(Cl)cc1 [Robenidine 4, robenidine, reference compound] | – | – | – | – | did not result in Giardia regrowth | >27.8 | 40.7±22.6
